Laboratory results from ChEMBL document CHEMBL1201862, “PubChem BioAssay data set” (2004).
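Where inhibition never reached the appropriate level, the endpoint shown equals the highest concentration tested. Otherwise, values were interpolated linearly from a five-concentration, 48-hour dose response in 96-well plates. GI50 marks 50% less growth.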 Calls of active or inactive are those of the source. Rule as the data show it: active = GI50 up to about 1.1 µM and inactive = higher.

What was measured:
Assay in all cases: inhibition of tumour cell growth, NCI panel, 48 h
SF-295 = test system: SF-295
K562 = test system: K562
OVCAR-5 = test system: OVCAR-5
U-251 = test system: U-251
MOLT-4 = test system: MOLT-4
NCI-H226 = test system: NCI-H226
IGROV-1 = test system: IGROV-1
EKVX = test system: EKVX
HL-60 = test system: HL-60
SNB-19 = test system: SNB-19
HCT-15 = test system: HCT-15
HT-29 = test system: HT-29
RXF 393 = test system: RXF 393
Malme-3M = test system: Malme-3M
COLO 205 = test system: COLO 205
UO-31 = test system: UO-31
MDA-MB-231 = test system: MDA-MB-231
PC-3 = test system: PC-3
MDA-N = test system: MDA-N

Row | SMILES | GI50 (SF-295) | GI50 (K562) | GI50 (OVCAR-5) | GI50 (U-251) | GI50 (MOLT-4) | GI50 (NCI-H226) | GI50 (IGROV-1) | GI50 (EKVX) | GI50 (HL-60) | GI50 (SNB-19) | GI50 (HCT-15) [µM] | GI50 (HT-29) | GI50 (RXF 393) | GI50 (Malme-3M) | GI50 (COLO 205) | GI50 (UO-31) | GI50 (MDA-MB-231) | GI50 (PC-3) | GI50 (MDA-N)
1 | CS/C(c1ccccc1)=[N+](\[O-])Cc1ccccc1 | > 100 µM (inactive) | > 100 µM (inactive) | > 100 µM (inactive) | > 100 µM (inactive) | > 100 µM (inactive) | > 100 µM (inactive) | > 100 µM (inactive) | > 100 µM (inactive) | > 100 µM (inactive) | > 100 µM (inactive) | 16.7 | 50.7 µM (inactive) | > 100 µM (inactive) | > 100 µM (inactive) | > 100 µM (inactive) | > 100 µM (inactive) |  |  | 
2 | COc1ccc([C@H]2[C@@H]3CCc4ccccc4C3=NN2C(N)=S)cc1OC |  | 22.4 µM (inactive) | > 100 µM (inactive) | 60.3 µM (inactive) | 31.1 µM (inactive) | 45.6 µM (inactive) | 69.3 µM (inactive) | 40.1 µM (inactive) | 22.9 µM (inactive) | 77.3 µM (inactive) | 40.9 | 40 µM (inactive) | 39.7 µM (inactive) | 85.3 µM (inactive) |  | 36.1 µM (inactive) |  |  | 
3 | CC/C(CC(=O)CCC(=O)Nc1c(C)cccc1C)=N\NC(=O)NN | > 100 µM (inactive) | > 100 µM (inactive) | > 100 µM (inactive) | > 100 µM (inactive) | > 100 µM (inactive) |  | > 100 µM (inactive) | > 100 µM (inactive) | > 100 µM (inactive) | > 100 µM (inactive) | > 100 | > 100 µM (inactive) | > 100 µM (inactive) | > 100 µM (inactive) | > 100 µM (inactive) | > 100 µM (inactive) |  |  | 
4 | CN(C)C(=O)Nc1c([N+](=O)[O-])cc(C(F)(F)F)cc1[N+](=O)[O-] | 63.4 µM (inactive) | 37.6 µM (inactive) | > 100 µM (inactive) | > 100 µM (inactive) | 78.5 µM (inactive) | > 100 µM (inactive) | > 100 µM (inactive) | > 100 µM (inactive) | 19.4 µM (inactive) | > 100 µM (inactive) | 37.1 | 35 µM (inactive) | 8.45 µM (inactive) |  | 25 µM (inactive) | > 100 µM (inactive) |  |  | 
5 | CCC1(Cl)C(=O)NC(=O)N(C2CC(O)C(CO)O2)C1N=[N+]=[N-] (stereo unspecified) | > 100 µM (inactive) | > 100 µM (inactive) | > 100 µM (inactive) | > 100 µM (inactive) | > 100 µM (inactive) |  | > 100 µM (inactive) | > 100 µM (inactive) | > 100 µM (inactive) | > 100 µM (inactive) |  | > 100 µM (inactive) | 41.2 µM (inactive) | > 100 µM (inactive) | > 100 µM (inactive) | > 100 µM (inactive) |  |  | 
6 | COc1cc2c(cc1OC)[C@@H](Nc1ccc(F)cc1)C1COC(=O)[C@@H]1C2c1cc(OC)c(O)c(OC)c1 (stereo partly specified) | 0.267 µM (active) | 1.19 µM (inactive) | 3.33 µM (inactive) | 0.493 µM (active) | 0.0147 µM (active) | 0.231 µM (active) | 21.7 µM (inactive) | > 38.2 µM (inactive) | 0.0982 µM (active) | 1 µM (active) | 1.67 | 3.66 µM (inactive) | 3.4 µM (inactive) | 3.07 µM (inactive) | 12.5 µM (inactive) | 2.14 µM (inactive) |  |  | 
7 | COC(=O)CCC1CCc2c(OC)ccc(O)c2C1=O (stereo unspecified) | > 100 µM (inactive) | > 100 µM (inactive) |  | > 100 µM (inactive) | > 100 µM (inactive) | 28.7 µM (inactive) | > 100 µM (inactive) | > 100 µM (inactive) | > 100 µM (inactive) | > 100 µM (inactive) | > 100 | > 100 µM (inactive) | > 100 µM (inactive) | > 100 µM (inactive) | > 100 µM (inactive) | 55.8 µM (inactive) |  |  | 
8 | COc1ccc(-c2cc3ccccc3[nH]c2=O)cc1OC | > 100 µM (inactive) | > 100 µM (inactive) | > 100 µM (inactive) | 71.6 µM (inactive) | > 100 µM (inactive) | > 100 µM (inactive) | > 100 µM (inactive) | > 100 µM (inactive) | > 100 µM (inactive) | > 100 µM (inactive) | > 100 | > 100 µM (inactive) | 47.5 µM (inactive) | > 100 µM (inactive) | > 100 µM (inactive) | > 100 µM (inactive) |  |  | 
9 | COc1ccc(/C=N/Nc2nc3ccccc3c(=O)n2-c2ccccc2)c(OCc2ccccc2)c1 | > 100 µM (inactive) | > 100 µM (inactive) | > 100 µM (inactive) | > 100 µM (inactive) | > 100 µM (inactive) | > 100 µM (inactive) | > 100 µM (inactive) | 33.9 µM (inactive) | > 100 µM (inactive) | > 100 µM (inactive) | > 100 | > 100 µM (inactive) | > 100 µM (inactive) | > 100 µM (inactive) | > 100 µM (inactive) | > 100 µM (inactive) | 88.7 µM (inactive) | 35.6 µM (inactive) | 
10 | Cc1cccc(C2SCc3nc4ccccc4n32)c1 (stereo unspecified) | 30.8 µM (inactive) | 14.2 µM (inactive) | 5.25 µM (inactive) | 19.7 µM (inactive) | 25.9 µM (inactive) | 24.1 µM (inactive) | 24.5 µM (inactive) | 18.9 µM (inactive) | 6.78 µM (inactive) |  | 18.6 | 27.9 µM (inactive) | 14.9 µM (inactive) | 14.7 µM (inactive) | > 10 µM (inactive) |  |  |  | 
11 | CC1=COC(C)(C=C(C#N)C#N)CC1 (stereo unspecified) | > 100 µM (inactive) | 30.5 µM (inactive) | > 100 µM (inactive) | > 100 µM (inactive) | 40.9 µM (inactive) | > 100 µM (inactive) | 88.3 µM (inactive) | > 100 µM (inactive) | 21.1 µM (inactive) | > 100 µM (inactive) | > 10 | > 100 µM (inactive) | > 100 µM (inactive) | > 100 µM (inactive) | > 100 µM (inactive) | > 100 µM (inactive) | 67.5 µM (inactive) |  | 
12 | NC1=NC(=O)C2(NN1)c1ccccc1-c1ccccc12 | > 10 µM (inactive) | 9.82 µM (inactive) | > 10 µM (inactive) | 7.62 µM (inactive) | > 10 µM (inactive) | > 10 µM (inactive) | > 10 µM (inactive) |  | 8.99 µM (inactive) | > 10 µM (inactive) | > 10 |  | > 10 µM (inactive) | > 10 µM (inactive) | > 10 µM (inactive) | > 10 µM (inactive) |  | > 10 µM (inactive) | > 10 µM (inactive)
13 | CC(C)C(NCc1c2ccccc2[n+](C)c2ccccc12)C(=O)O (stereo unspecified) | 6.76 µM (inactive) | 0.782 µM (active) | 18.9 µM (inactive) | 7.28 µM (inactive) | 1.14 µM (inactive) | 14.7 µM (inactive) | 8.59 µM (inactive) | 10.6 µM (inactive) | 1.97 µM (inactive) | 15.5 µM (inactive) | 3.68 | 2.89 µM (inactive) | 3.48 µM (inactive) | 6.62 µM (inactive) | 2.34 µM (inactive) | 8.07 µM (inactive) |  |  | 
14 | COc1cccc2nc3cc(C)c(C)cc3nc12 | > 100 µM (inactive) | > 100 µM (inactive) | > 100 µM (inactive) | > 100 µM (inactive) | > 100 µM (inactive) | > 100 µM (inactive) | > 100 µM (inactive) | > 100 µM (inactive) | > 100 µM (inactive) | > 100 µM (inactive) | > 100 | > 100 µM (inactive) | > 100 µM (inactive) | > 100 µM (inactive) | > 100 µM (inactive) | 61.2 µM (inactive) |  |  | 
15 | COC(=O)c1cc2c3ccccc3n(C(C)=O)c2cn1 | > 100 µM (inactive) | 59.2 µM (inactive) | > 100 µM (inactive) | > 100 µM (inactive) | 41.6 µM (inactive) | > 100 µM (inactive) | 40.4 µM (inactive) | 51.2 µM (inactive) | 35.7 µM (inactive) | > 100 µM (inactive) | 68.9 | > 100 µM (inactive) | 43.9 µM (inactive) | > 100 µM (inactive) | 92.5 µM (inactive) | > 100 µM (inactive) |  |  | 
16 | N#CC(N)(C(=O)C(=O)NCCCNC(=O)C(=O)C(N)(C#N)c1ccc(Cl)cc1)c1ccc(Cl)cc1 (stereo unspecified) | > 100 µM (inactive) | 95.3 µM (inactive) | > 100 µM (inactive) | > 100 µM (inactive) | > 100 µM (inactive) | > 100 µM (inactive) | > 100 µM (inactive) | > 100 µM (inactive) | 54.7 µM (inactive) | > 100 µM (inactive) | > 100 | > 100 µM (inactive) | > 100 µM (inactive) | > 100 µM (inactive) | > 100 µM (inactive) | > 100 µM (inactive) |  |  | 
17 | CC1OC(OC2C(OC(=O)[C@]34CCC(C)(C)CC3C3=CCC5[C@@]6(C)C[C@H](O)[C@H](OC7OC(CO)C(O)C(O)C7N)[C@@](C)(C(=O)O)C6CC[C@@]5(C)C3(C)CC4)OCC(O)C2O)C(O)C(O)C1OC1OCC(O)C(O)C1O (stereo partly specified) | > 100 µM (inactive) | > 100 µM (inactive) | > 100 µM (inactive) | > 100 µM (inactive) | > 100 µM (inactive) | > 100 µM (inactive) | > 100 µM (inactive) | > 100 µM (inactive) | > 100 µM (inactive) | > 100 µM (inactive) | > 100 | > 100 µM (inactive) | > 100 µM (inactive) | > 100 µM (inactive) | > 100 µM (inactive) | > 100 µM (inactive) |  |  | 
18 | Cc1cn(C2CC3C(COCN3O)O2)c(=O)[nH]c1=O (stereo unspecified) | > 100 µM (inactive) | > 100 µM (inactive) | > 100 µM (inactive) | > 100 µM (inactive) | > 100 µM (inactive) | > 100 µM (inactive) | > 100 µM (inactive) | > 100 µM (inactive) | > 100 µM (inactive) | > 100 µM (inactive) | > 100 | > 100 µM (inactive) | > 100 µM (inactive) |  | > 100 µM (inactive) | > 100 µM (inactive) |  |  | 
